Results reported in patent publication US7799810B2, “Organic compounds” (Novartis AG, priority 2006, dated 2010).

Key:
[1] = test system: PI3K α, β or γ isoform; test: Selectivity for the δ isoform by corresponding assay using the corresponding PI3K isoform; type: biochemical; settings: δ versus α
Description: PI3K delta enzyme assay based on Scintillation Proximity Assay (SPA) technology. Human PI3K delta is expressed as a recombinant protein in insect cells. PI3K delta activity is assayed by measuring the phosphorylation of phosphatidylinositol (PI) using a scintillation proximity assay. Briefly, the kinase reaction is performed in a final volume of 50 μl/well. The final concentrations of ATP and PI in the assay are 5 μM and 6 μg/ml, respectively. The reaction is started by the addition of PI3K delta and terminated by the addition of 50 μl Wheatgerm agglutinin SPA beads after 90 minutes of incubation at room temperature.

[2] = biological target: T1, Human PI3K delta (Homo sapiens, UniProt O00329); test: Cellular PI3K delta assay (Akt phosphorylation in transfected Rat-1 cells); type: cell-based; settings: Rat-1 cells transfected with human PI3K delta CaaX construct, phospho Akt ELISA; read-out: IC50 PI3K delta-dependent Akt phosphorylation
T1 construct: fused on or other part: CaaX box (isoprenylation / membrane-targeting signal) added at the C-terminal end
T1 sequence (O00329 1-1044): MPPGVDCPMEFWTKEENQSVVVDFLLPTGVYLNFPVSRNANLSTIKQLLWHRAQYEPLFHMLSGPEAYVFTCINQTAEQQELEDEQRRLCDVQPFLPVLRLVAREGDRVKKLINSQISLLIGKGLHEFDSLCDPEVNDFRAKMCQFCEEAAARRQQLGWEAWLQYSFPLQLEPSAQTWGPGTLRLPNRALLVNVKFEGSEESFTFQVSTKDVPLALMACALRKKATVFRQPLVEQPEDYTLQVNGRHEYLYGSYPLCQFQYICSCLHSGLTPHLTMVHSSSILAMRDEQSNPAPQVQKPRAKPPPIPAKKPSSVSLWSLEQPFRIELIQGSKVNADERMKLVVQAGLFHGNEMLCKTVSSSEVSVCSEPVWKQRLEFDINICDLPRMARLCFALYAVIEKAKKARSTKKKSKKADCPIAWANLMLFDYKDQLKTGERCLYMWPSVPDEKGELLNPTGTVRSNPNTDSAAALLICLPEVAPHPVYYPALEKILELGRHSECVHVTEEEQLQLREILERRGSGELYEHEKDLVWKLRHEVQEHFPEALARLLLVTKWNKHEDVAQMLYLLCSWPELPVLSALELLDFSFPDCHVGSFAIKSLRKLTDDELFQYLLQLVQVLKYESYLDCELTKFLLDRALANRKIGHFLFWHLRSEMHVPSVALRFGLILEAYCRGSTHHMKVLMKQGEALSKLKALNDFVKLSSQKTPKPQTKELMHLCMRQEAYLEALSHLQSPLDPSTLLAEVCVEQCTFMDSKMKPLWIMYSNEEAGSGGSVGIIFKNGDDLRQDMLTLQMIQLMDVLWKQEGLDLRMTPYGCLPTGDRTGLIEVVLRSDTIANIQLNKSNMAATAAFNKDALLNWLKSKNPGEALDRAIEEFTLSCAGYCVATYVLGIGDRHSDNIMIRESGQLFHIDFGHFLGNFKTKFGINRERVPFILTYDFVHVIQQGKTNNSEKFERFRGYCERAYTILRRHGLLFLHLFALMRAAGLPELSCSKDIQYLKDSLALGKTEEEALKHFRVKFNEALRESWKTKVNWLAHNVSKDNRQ
From the text: Cellular PI3K delta assay. Rat-1 cells are transiently transfected with a human PI3K delta construct (pcDNA3 PIK3 delta containing a CaaX box at the C-terminal end) using the FUGENE transfection kit. The CaaX box signals for the attachment of an isoprenoid moiety which activates PI3K delta by targeting it to intracellular membranes/the plasma membrane. Subsequent, PI3K delta-dependent Akt phosphorylation is quantified in presence and absence of compounds to be tested using the phospho Akt ELISA kit from R&D Systems.

[3] = test system: spleen cells of nu/nu Balb/c mice; test: B cell proliferation assay (anti-IgM stimulated spleen cells); type: cell-based; settings: anti-mouse IgM 5 μg/ml, 3 days, [3H] thymidine incorporation
Description: B cell proliferation assay. A spleen cell suspension of nu/nu Balb/c mice is prepared and adjusted to 2×10^6 cells/ml in complete Iscoves Medium followed by the addition of 10 μg/ml monoclonal anti-mouse IgM antibody (clone b-7-6). Compounds to be rested are dissolved in DMSO at 10 mM and diluted in complete Iscoves Medium. […] Plates are incubated for 3 days at 37° C. and 5% CO2. Cell proliferation is measured by incorporation of [^3H] thymidine following a 16 hours pulse.

[4] = test system: spleen cells from CBA and BALB/c mice; test: Mixed lymphocyte reaction (two-way MLR); type: cell-based; settings: Mus musculus, four days of incubation, 3H-thymidine incorporation
Description: Mixed lymphocyte reaction (MLR). A two-way MLR is performed according to standard procedures. Briefly, spleen cells from CBA and BALB/c mice (1.6×10^5 cells from each strain per well in flat bottom tissue culture microtiter plates, 3.2×10^5 in total) are incubated in RPMI medium containing 10% fetal calf serum, 100 U/ml penicillin, 100 μg/ml streptomycin, 50 μM 2-mercaptoethanol and serially diluted compounds to be tested. After four days of incubation 1 μCi [^3H] thymidine is added to the cultures. Cells are harvested after an additional five-hour incubation period, and incorporated ^3H-thymidine is determined according to standard procedures. […] In this assay, the compounds of formula I have ICsovalues ranging from 20 nM to 200 nM.

`Cc1cc(NC(=O)CCNC(=O)Nc2nc(C)c(-c3ccc(-n4cccn4)cc3)s2)no1` [Example 2, N-(5-Methyl-isoxazol-3-yl)-3-{3-[4-methyl-5-(4-pyrazol-1-yl-phenyl)-thiazol-2-yl]-ureido}-propionamide] was tested, and the “selectivity for the δ isoform over the α, β or γ isoform (ratio of IC50 values)” value [1] was “at least 10 fold”, the IC50 [2] was 22 nM and the IC50 [3] was 15 nM. It also gave an IC50 [4] of 26 nM.
